Target: HSD17B13 (Homo sapiens (Human), UniProt Q7Z5P4)
Test: HSD17B13 enzymatic inhibition assay (150 nM or 50 nM HSD17B13)
Type: biochemical
Details: 50 nM HSD17B13; read-out: Inhibition of 50 nM of HSD17B13 IC50

HSD17B13, sequence (Q7Z5P4 other isoform, or with tags, fused parts or gaps): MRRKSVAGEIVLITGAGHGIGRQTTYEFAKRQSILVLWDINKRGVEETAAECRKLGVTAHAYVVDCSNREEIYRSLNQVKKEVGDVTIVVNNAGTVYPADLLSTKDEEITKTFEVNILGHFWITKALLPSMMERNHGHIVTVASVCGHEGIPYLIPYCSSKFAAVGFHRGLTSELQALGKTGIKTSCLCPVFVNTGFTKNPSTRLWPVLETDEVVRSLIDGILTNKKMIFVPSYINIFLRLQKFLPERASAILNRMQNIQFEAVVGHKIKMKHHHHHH

| Structure (SMILES) | IC50 [µM] |
| --- | --- |
| O=C(NC1c2ccccc2CCc2ccccc21)c1ccc(C(F)(F)F)[nH]c1=O [Compound 40, N-(10,11-dihydro-5H-dibenzo[a,d][7]annulen-5-yl)-2-oxo-6-(trifluoromethyl)-1,2-dihydropyridine-3-carboxamide] | 1.65 |
| CCc1ccc2c(c1)-c1cc(CC)ccc1C2NC(=O)c1ccc(C(F)(F)F)[nH]c1=O [Compound 42, N-(3,6-diethyl-9H-fluoren-9-yl)-2-oxo-6-(trifluoromethyl)-1,2-dihydropyridine-3-carboxamide] | 1.3 |
| O=C(NC1c2ccc(O)cc2-c2cc(O)ccc21)c1ccc(C(F)(F)F)[nH]c1=O [Compound 45, N-(3,6-dihydroxy-9H-fluoren-9-yl)-2-oxo-6-(trifluoromethyl)-1,2-dihydropyridine-3-carboxamide] | 1.75 |
| O=C(NC1c2ccc(OC(F)F)cc2-c2cc(OC(F)F)ccc21)c1ccc(C(F)(F)F)[nH]c1=O [Compound 47, N-(3,6-bis(difluoromethoxy)-9H-fluoren-9-yl)-2-oxo-6-(trifluoromethyl)-1,2-dihydropyridine-3-carboxamide] | 1.83 |
| N#Cc1ccc(C(NC(=O)c2ccc(C(F)(F)F)[nH]c2=O)c2ccc(C#N)cc2)cc1 [Compound 49, N-(bis(4-cyanophenyl)methyl)-2-oxo-6-(trifluoromethyl)-1,2-dihydropyridine-3-carboxamide] | 0.98 |
| COc1ccc2c(c1)Oc1ccccc1C2NC(=O)c1ccc(C(F)(F)F)[nH]c1=O (stereo not shown) [Compound 54, N-(3-methoxy-9H-xanthen-9-yl)-2-oxo-6-(trifluoromethyl)-1,2-dihydropyridine-3-carboxamide] | 1.48 |
| COc1ccc2c(c1)Oc1cc(OC)ccc1C2NC(=O)c1ccc(C(F)(F)F)[nH]c1=O [Compound 56, N-(3,6-dimethoxy-9H-xanthen-9-yl)-2-oxo-6-(trifluoromethyl)-1,2-dihydropyridine-3-carboxamide] | 0.44 |
| COc1ccc2c(c1)Oc1cccc(OC)c1C2NC(=O)c1ccc(C(F)(F)F)[nH]c1=O (stereo not shown) [Compound 57, N-(1,6-dimethoxy-9H-xanthen-9-yl)-2-oxo-6-(trifluoromethyl)-1,2-dihydropyridine-3-carboxamide] | 0.46 |
| O=C(NC(c1ccccc1)C1CCCCC1)c1ccc(C(F)(F)F)[nH]c1=O (stereo not shown) [Compound 58, N-(cyclohexyl(phenyl)methyl)-2-oxo-6-(trifluoromethyl)-1,2-dihydropyridine-3-carboxamide] | 2.89 |
| O=C(NC1c2ccccc2-c2ccccc21)c1cnc(Cc2ccccc2)[nH]c1=O [Compound 59, 2-benzyl-N-(9H-fluoren-9-yl)-6-oxo-1,6-dihydropyrimidine-5-carboxamide] | > 10 |
| O=C(Nc1cc(-c2ccccc2)cc(-c2ccccc2)c1)c1ccc(C(F)(F)F)[nH]c1=O [Compound 60, N-([1,1′:3′,1″-terphenyl]-5′-yl)-2-oxo-6-(trifluoromethyl)-1,2-dihydropyridine-3-carboxamide] | > 10 |
| Cc1ccc(C(NC(=O)c2ccc(C(F)F)[nH]c2=O)c2ccc(C)cc2)cc1 [Compound 61, N-(di-p-tolylmethyl)-6-(difluoromethyl)-2-oxo-1,2-dihydropyridine-3-carboxamide] | 2.25 |
| O=C(NC(c1ccc(Cl)cc1)c1ccccn1)c1ccc(C(F)(F)F)[nH]c1=O (stereo not shown) [Compound 67, N-((4-chlorophenyl)(pyridin-2-yl)methyl)-2-oxo-6-(trifluoromethyl)-1,2-dihydropyridine-3-carboxamide] | 2.27 |
| O=C(NC(c1ccc(Cl)cc1)c1cnccn1)c1ccc(C(F)(F)F)[nH]c1=O (stereo not shown) [Compound 70, N-((4-chlorophenyl)(pyrazin-2-yl)methyl)-2-oxo-6-(trifluoromethyl)-1,2-dihydropyridine-3-carboxamide] | > 10 |
| O=C(NC(c1ccc(Cl)cc1)c1ncccn1)c1ccc(C(F)(F)F)[nH]c1=O (stereo not shown) [Compound 71, N-((4-chlorophenyl)(pyrimidin-2-yl)methyl)-2-oxo-6-(trifluoromethyl)-1,2-dihydropyridine-3-carboxamide] | 5.85 |
| O=C(NC(c1ccncc1)c1ccncc1)c1ccc(C(F)(F)F)[nH]c1=O [Compound 73, N-(di(pyridin-4-yl)methyl)-2-oxo-6-(trifluoromethyl)-1,2-dihydropyridine-3-carboxamide] | > 10 |
| O=C(Cc1ccccc1)Nc1ccc(C(NC(=O)c2ccc(C(F)(F)F)[nH]c2=O)c2ccccc2)cc1 (stereo not shown) [Compound 74, N-(phenyl(4-(2-phenylacetamido)phenyl)methyl)-2-oxo-6-(trifluoromethyl)-1,2-dihydropyridine-3-carboxamide] | 1.37 |
| O=C(NC(c1ccccc1OC(F)(F)F)c1ccccc1OC(F)(F)F)c1ccc(C(F)(F)F)[nH]c1=O [Compound 79, N-(bis(2-(trifluoromethoxy)phenyl)methyl)-2-oxo-6-(trifluoromethyl)-1,2-dihydropyridine-3-carboxamide] | 2.33 |

Other lines, results leading:

| IC50 [µM] | Structure (SMILES) |
| --- | --- |
| 1.63 | O=C(NC(c1ccc(F)cc1)c1ccc(F)cc1)c1ccc(C(F)(F)F)[nH]c1=O [Compound 34, N-(bis(4-fluorophenyl)methyl)-2-oxo-6-(trifluoromethyl)-1,2-dihydropyridine-3-carboxamide] |
| 0.45 | O=C(NC(c1ccccc1)c1ccc(C2CCCC2)cc1)c1ccc(C(F)(F)F)[nH]c1=O (stereo not shown) [Compound 38, N-((4-cyclopentylphenyl)(phenyl)methyl)-2-oxo-6-(trifluoromethyl)-1,2-dihydropyridine-3-carboxamide] |
| 0.49 | O=C(NC(c1ccccc1)c1ccc(C2CCCCC2)cc1)c1ccc(C(F)(F)F)[nH]c1=O (stereo not shown) [Compound 39, N-((4-cyclohexylphenyl)(phenyl)methyl)-2-oxo-6-(trifluoromethyl)-1,2-dihydropyridine-3-carboxamide] |
| 1.29 | CN(C)c1ccc(C(NC(=O)c2ccc(C(F)(F)F)[nH]c2=O)c2ccccc2)cc1 (stereo not shown) [Compound 41, N-((4-(dimethylamino)phenyl) (phenyl)methyl)-2-oxo-6-(trifluoromethyl)-1,2-dihydropyridine-3-carboxamide] |
| 2.49 | O=C(NC(c1ccccc1)c1ccc(N2CCOCC2)cc1)c1ccc(C(F)(F)F)[nH]c1=O (stereo not shown) [Compound 48, N-((4-morpholinophenyl)(phenyl)methyl)-2-oxo-6-(trifluoromethyl)-1,2-dihydropyridine-3-carboxamide] |
| 1.11 | Cc1cccc(C(NC(=O)c2ccc(C(F)(F)F)[nH]c2=O)c2cccc(C)c2)c1 [Compound 62, N-(di-m-tolylmethyl)-6-(trifluoromethyl)-2-oxo-1,2-dihydropyridine-3-carboxamide] |
| 7.22 | CC(=O)Nc1ccc(C(NC(=O)c2ccc(C(F)(F)F)[nH]c2=O)c2ccccc2)cc1 (stereo not shown) [Compound 66, N-((4-acetamidophenyl)(phenyl)methyl)-2-oxo-6-(trifluoromethyl)-1,2-dihydropyridine-3-carboxamide] |
| 2.53 | O=C(NC(c1ccncc1)c1ccc(Cl)cc1)c1ccc(C(F)(F)F)[nH]c1=O (stereo not shown) [Compound 68, N-((4-chlorophenyl)(pyridin-4-yl)methyl)-2-oxo-6-(trifluoromethyl)-1,2-dihydropyridine-3-carboxamide] |
| 2.59 | O=C(NC(c1ccc(Cl)cc1)c1cccnc1)c1ccc(C(F)(F)F)[nH]c1=O (stereo not shown) [Compound 69, N-((4-chlorophenyl)(pyridin-3-yl)methyl)-2-oxo-6-(trifluoromethyl)-1,2-dihydropyridine-3-carboxamide] |
| 7.05 | O=C(NC(c1ccccc1)c1cccc(Br)n1)c1ccc(C(F)(F)F)[nH]c1=O (stereo not shown) [Compound 72, N-((6-bromopyridin-2-yl)(phenyl)methyl)-2-oxo-6-(trifluoromethyl)-1,2-dihydropyridine-3-carboxamide] |
| 1.87 | O=C(Nc1ccc(C(NC(=O)c2ccc(C(F)(F)F)[nH]c2=O)c2ccccc2)cc1)c1ccccc1 (stereo not shown) [Compound 75, N-((4-benzamidophenyl)(phenyl)methyl)-2-oxo-6-(trifluoromethyl)-1,2-dihydropyridine-3-carboxamide] |
| 1.7 | O=C(NC(c1ccccc1)c1ccc(C2CCOCC2)cc1)c1ccc(C(F)(F)F)[nH]c1=O (stereo not shown) [Compound 76, N-(phenyl(4-(tetrahydro-2H-pyran-4-yl)phenyl)methyl)-2-oxo-6-(trifluoromethyl)-1,2-dihydropyridine-3-carboxamide] |
| 0.68 | O=C(NC(c1ccccc1)c1ccc(C2CCC2)cc1)c1ccc(C(F)(F)F)[nH]c1=O (stereo not shown) [Compound 77, N-((4-cyclobutylphenyl)(phenyl)methyl)-2-oxo-6-(trifluoromethyl)-1,2-dihydropyridine-3-carboxamide] |
| 1.34 | COc1ccc(C(NC(=O)c2c(C)cc(C(F)(F)F)[nH]c2=O)c2ccccc2)cc1 (stereo not shown) [Compound 78, N-((4-methoxyphenyl)(phenyl)methyl)-4-methyl-2-oxo-6-(trifluoromethyl)-1,2-dihydropyridine-3-carboxamide] |
| 1.09 | O=C(NC(c1ccccc1)c1ccc2c(c1)CCCO2)c1ccc(C(F)(F)F)[nH]c1=O (stereo not shown) [Compound 81, N-(chroman-6-yl(phenyl)methyl)-2-oxo-6-(trifluoromethyl)-1,2-dihydropyridine-3-carboxamide] |
| 0.84 | O=C(NC(c1ccccc1)c1ccc2c(c1)CCOC2)c1ccc(C(F)(F)F)[nH]c1=O (stereo not shown) [Compound 82, N-(isochroman-6-yl(phenyl)methyl)-2-oxo-6-(trifluoromethyl)-1,2-dihydropyridine-3-carboxamide] |
| 2.37 | O=C(NC(c1ccccc1)c1ccc2c(c1)COCC2)c1ccc(C(F)(F)F)[nH]c1=O (stereo not shown) [Compound 83, N-(isochroman-7-yl(phenyl)methyl)-2-oxo-6-(trifluoromethyl)-1,2-dihydropyridine-3-carboxamide] |
| 1.04 | O=C(NC(c1ccccc1)c1ccc2c(c1)OCC2)c1ccc(C(F)(F)F)[nH]c1=O (stereo not shown) [Compound 84, N-((2,3-dihydrobenzofuran-6-yl)(phenyl)methyl)-2-oxo-6-(trifluoromethyl)-1,2-dihydropyridine-3-carboxamide] |
| 0.84 | O=C(NC(c1ccccc1)c1ccc(-c2ccncc2)cc1)c1ccc(C(F)(F)F)[nH]c1=O (stereo not shown) [Compound 85, 2-oxo-N-(phenyl(4-(pyridin-4-yl)phenyl)methyl)-6-(trifluoromethyl)-1,2-dihydropyridine-3-carboxamide] |

Source: patent publication US11957687B2 (REGENERON PHARMACEUTICALS, INC., priority 2019, dated 2024)
